From patent publication US20130149269A1, “NOVEL MALODOR COUNTERACTANT” (priority 2011, published 2013)

Experiments:
[1] = Smoke malodor counteracting test, trained sensory panel (LMS rating); settings: for Malodor Intensity / % MOR: smoke malodor; for Malodor Intensity: mean LMS 0-100, 24 hours equilibration; for % MOR: relative to Malodor Alone
Excerpt: (§1) Establishment of Malodor Models: A number of malodorous chemicals have been identified, which are associated with different types of malodors. Commercial samples of these chemicals (commercially available at Sigma-Aldrich Inc.) were thus used in the present invention as malodorous model compounds to assess the effectiveness of methyl 3-methyl cyclohexane carboxylate in counteracting malodors.
(§2) A model of bathroom malodor was established using a solution of isovaleric acid (“IVA”) in diethyl phthalate (“DEP”) (10% by weight). A model of sweat malodor was established using a solution of 3-methyl-2-hexanoic acid in DEP (5% by weight). A model of mold/mildew malodors was established using a solution of 2-ethyl-1-hexanol in DEP (20% by weight). A model of smoke malodor was established by applying a solution of 3-acetyl pyridine in DEP (5% by weight) onto a piece of cloth.
(§3) Preparation of Test Samples: Methyl 3-methyl cyclohexane carboxylate was prepared at a series of concentrations, ranging from 0.1% to 5% in DEP, with corresponding vapor phase concentrations ranging from about 4 μg to about 0.2 mg per liter of air space.
(§4) A malodor material as established above (1 g) and a solution of methyl 3-methyl cyclohexane carboxylate in DEP (1 g) were pipetted into separate aluminum weighing dishes located at the bottom of a 32 oz. jar (1 L). For negative control samples (Malodor Alone), the malodor material (0.5 g) was pipetted into each of the two dishes located at the bottom of jar. Jars were then capped and the samples were allowed to equilibrate for 24 hours before testing.
(§5) Testing Procedure: Test samples were presented in a blind and pseudorandom order to a group of trained panelists (consisting of 12-17 females with a mean age of 40 years). The panelists were instructed to take the following steps: i) sniff malodor reference jars for familiarization prior to each testing session; ii) uncap a jar; iii) place their noses at a distance of about 3-4 inches above the opening; iv) take short sniffs for about 2-3 seconds; and v) enter a rating of overall intensity and malodor intensity on a handheld computer.
(§6) The overall and malodor intensity was rated using the Labeled Magnitude Scale (LMS) [Green, et al., Chemical Senses, 21(3), June 1996, 323-334]. Mean (“Malodor Intensity”) and standard error of the mean (“SE”, ±) were obtained, where 0 represents “No Sensation” and 100 represents “The Strongest Imaginable Malodor Sensation”. Percent malodor reduction (“% MOR”) represents the perceived reduction in mean malodor intensity of the sample containing the malodor in the presence of methyl 3-methyl cyclohexane carboxylate relative to the negative control (Malodor Alone).

[2] = Bathroom malodor counteracting test, trained sensory panel (LMS rating); settings: for Malodor Intensity / % MOR: bathroom malodor; for Malodor Intensity: mean LMS 0-100, 24 hours equilibration; for % MOR: relative to Malodor Alone
Excerpt: as §1, §2, §3, §4, §5, §6

[3] = Mold/mildew malodor counteracting test, trained sensory panel (LMS rating); settings: for Malodor Intensity / % MOR: mold/mildew malodor; for Malodor Intensity: mean LMS 0-100, 24 hours equilibration; for % MOR: relative to Malodor Alone
Excerpt: as §1, §2, §3, §4, §5, §6

[4] = Sweat malodor counteracting test, trained sensory panel (LMS rating); settings: for Malodor Intensity / % MOR: sweat malodor; for Malodor Intensity: mean LMS 0-100, 24 hours equilibration; for % MOR: relative to Malodor Alone
Excerpt: as §1, §2, §3, §4, §5, §6

[5] = overall conclusion, 0.1% to 5% in DEP

## COC(=O)C1CCCC(C)C1 (stereo not drawn) [Methyl 3-Methyl Cyclohexane Carboxylate, methyl 3-methyl cyclohexane carboxylate]
[1]; [5]
  counteracting the smoke malodor (result in words): effective
[1]; 0.1% in DEP, 4 μg/L
  Malodor Intensity: 10.02
  % MOR: 51.95%
[1]; 0.5% in DEP, 21 μg/L
  Malodor Intensity: 7.23
  % MOR: 66.04%
[1]; 1% in DEP, 42 μg/L
  Malodor Intensity: 4.78
  % MOR: 77.57%
[1]; 5% in DEP, 208 μg/L
  Malodor Intensity: 4.23
  % MOR: 80.07%
[2]; 0.1% in DEP, 4 μg/L
  Malodor Intensity: 8.65
  % MOR: 56.93%
[2]; 0.5% in DEP, 21 μg/L
  Malodor Intensity: 5.44
  % MOR: 66.47%
[2]; 1% in DEP, 42 μg/L
  Malodor Intensity: 2.69
  % MOR: 86.11%
[2]; 5% in DEP, 208 μg/L
  Malodor Intensity: 1.71
  % MOR: 90.86%
[2]; [5]
  counteracting the bathroom malodor (result in words): effective
[3]; 0.1% in DEP, 4 μg/L
  Malodor Intensity: 9.88
  % MOR: 40.01%
[3]; 0.5% in DEP, 21 μg/L
  Malodor Intensity: 5.44
  % MOR: 69.56%
[3]; 1% in DEP, 42 μg/L
  Malodor Intensity: 4.44
  % MOR: 76.51%
[3]; 5% in DEP, 208 μg/L
  Malodor Intensity: 3.34
  % MOR: 83.07%
[3]; [5]
  counteracting the mold/mildew malodor (result in words): effective
[4]; [5]
  counteracting the sweat malodor (result in words): effective
[4]; 0.1% in DEP, 4 μg/L
  Malodor Intensity: 4.48
  % MOR: 77.92%
[4]; 0.5% in DEP, 21 μg/L
  Malodor Intensity: 5.12
  % MOR: 72.63%
[4]; 1% in DEP, 42 μg/L
  Malodor Intensity: 5.42
  % MOR: 73.14%
[4]; 5% in DEP, 208 μg/L
  Malodor Intensity: 3.55
  % MOR: 81.47%
